Data from US12351574B2, “Selective ligands for modulation of GIRK channels” (Northeastern University, priority 2018, dated 2025).

What was measured:
[1] = molecular target: T1, GIRK1/4 (Homo sapiens, UniProt P48544+P48549); assay: current inhibition by light-activated phosphatase 5-ptaseOCRL, HEK293 whole-cell patch-clamp, GIRK1/4; assay type: cell-based; set-up: expressed in transfected cells; settings: HEK-293 cells
T1 sequence (P48549 1-501): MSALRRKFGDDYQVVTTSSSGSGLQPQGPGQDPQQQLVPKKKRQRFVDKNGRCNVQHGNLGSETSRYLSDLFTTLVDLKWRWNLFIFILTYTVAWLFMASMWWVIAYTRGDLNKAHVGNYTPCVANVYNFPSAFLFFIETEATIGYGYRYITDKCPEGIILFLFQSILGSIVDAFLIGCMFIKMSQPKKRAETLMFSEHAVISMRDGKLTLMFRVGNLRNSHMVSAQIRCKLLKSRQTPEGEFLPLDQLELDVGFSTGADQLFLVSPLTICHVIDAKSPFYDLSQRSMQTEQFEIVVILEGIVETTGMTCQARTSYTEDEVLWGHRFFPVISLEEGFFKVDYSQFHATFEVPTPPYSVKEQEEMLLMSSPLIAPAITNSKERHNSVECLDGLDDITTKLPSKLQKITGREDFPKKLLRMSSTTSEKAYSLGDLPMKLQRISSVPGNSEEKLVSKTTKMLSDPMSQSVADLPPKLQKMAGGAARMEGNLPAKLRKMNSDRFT
T1 sequence (P48544 1-419): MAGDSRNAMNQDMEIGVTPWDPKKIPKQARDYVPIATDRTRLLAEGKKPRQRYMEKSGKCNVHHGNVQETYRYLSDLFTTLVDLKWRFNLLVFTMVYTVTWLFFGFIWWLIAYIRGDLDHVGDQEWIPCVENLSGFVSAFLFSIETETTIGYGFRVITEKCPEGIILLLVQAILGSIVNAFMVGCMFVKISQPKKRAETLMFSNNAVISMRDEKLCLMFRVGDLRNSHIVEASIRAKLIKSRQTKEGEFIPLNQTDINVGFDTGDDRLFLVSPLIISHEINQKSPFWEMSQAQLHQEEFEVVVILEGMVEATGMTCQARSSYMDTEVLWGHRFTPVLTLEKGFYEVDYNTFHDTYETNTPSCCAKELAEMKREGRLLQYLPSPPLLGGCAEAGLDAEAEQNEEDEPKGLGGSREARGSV
From the text: (§1) The inventors next pursued whole-cell patch-clamp experiments to further validate the model predictions and excised-patch results. Expression of a light-activated phosphatase that upon exposure to blue light dephosphorylates PI(4,5)P2 to PI(4)P and inhibits GIRK currents allowed recording of macroscopic currents in the absence and presence of ML297 and the two brain-specific GAT compounds. […] Since GAT1508 and ML297 only bind GIRK1 or GIRK1-like (i.e. “FD-containing”, “FD”=mimics the contribution of GIRK1 residues F137 and D173, see Example 2) subunits resulting in corresponding changes in channel-PIP2 interactions and channel activity, the inventors next sought to compare channel subunit specific interactions with PIP2 for subunits bound to the ligand (P-FD) versus those not bound to the ligand (P-WT) (FIGS. 19, 38A).
Culture of HEK293 cells: HEK293-T cells were obtained from ATCC and maintained in DMEM medium supplemented with 10% FBS and 1% penicillin and streptomycin (Hyclone). For patch-clamp studies, cells were seeded on glass coverslips and transfected 24-hours later using a polyethylenimine solution (1 mg/ml) at a ratio of 8 μl per μg of DNA. To study GIRK-currents, cells were transfected with 0.75 μg each of plasmids encoding GIRK1, GIRK2 or GIRK4 as indicated. In the optogenetic experiments, cells were co-transfected with plasmids encoding 5-ptaseOCRL and CIBN-CAAX, as previously described. 5-ptaseOCRL and CIBN-CAAX were a kind gift from the DeCamilli lab, Yale CT. All experiments were performed at room temperature 24-36 hours post transfection. […]
Patch-clamp recording: Whole-cell currents were recorded with an Axopatch 200B amplifier (Molecular Devices) controlled via a USB-interface (National Instruments) using WinWCP software (University of Strathclyde). […] The barium-sensitive component of the current, observed when cells were perfused with the high-K^+ buffer, was analyzed and was determined by perfusing 5 mM BaCl2 in the high-K^+ buffer at the end of each experiment. […]

[2] = molecular target: T2, GIRK1/2 (UniProt P48542+P48549); assay: current inhibition by light-activated phosphatase 5-ptaseOCRL, HEK293 whole-cell patch-clamp, GIRK1/2; assay type: cell-based, human GIRK1, mouse GIRK2; set-up: expressed in transfected cells; settings: for percentage of GIRK1/2 channel current remaining following activation of 5-ptaseOCRL (in words) / τ of current-inhibition, GIRK1/2 (in words): 10 μM compound versus control; for protection from current inhibition, rank order, GIRK1/2: current levels and kinetics of inhibition
T2 sequence (P48549 1-501): T1 sequence (P48549 1-501)
T2 sequence (P48542 1-425): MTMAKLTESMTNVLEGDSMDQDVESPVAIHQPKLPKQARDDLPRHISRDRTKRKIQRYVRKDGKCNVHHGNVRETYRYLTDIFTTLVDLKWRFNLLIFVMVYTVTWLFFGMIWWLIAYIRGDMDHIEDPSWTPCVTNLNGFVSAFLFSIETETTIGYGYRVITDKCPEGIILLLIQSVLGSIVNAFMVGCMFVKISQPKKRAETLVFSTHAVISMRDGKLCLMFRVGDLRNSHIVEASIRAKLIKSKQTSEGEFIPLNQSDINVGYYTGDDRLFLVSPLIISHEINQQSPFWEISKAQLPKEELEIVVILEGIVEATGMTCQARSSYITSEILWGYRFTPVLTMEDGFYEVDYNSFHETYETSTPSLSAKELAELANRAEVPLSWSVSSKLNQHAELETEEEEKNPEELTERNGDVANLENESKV
From the text: as §1
Culture of HEK293 cells: HEK293-T cells were obtained from ATCC and maintained in DMEM medium supplemented with 10% FBS and 1% penicillin and streptomycin (Hyclone). For patch-clamp studies, cells were seeded on glass coverslips and transfected 24-hours later using a polyethylenimine solution (1 mg/ml) at a ratio of 8 μl per μg of DNA. To study GIRK-currents, cells were transfected with 0.75 μg each of plasmids encoding GIRK1, GIRK2 or GIRK4 as indicated. In the optogenetic experiments, cells were co-transfected with plasmids encoding 5-ptaseOCRL and CIBN-CAAX, as previously described. 5-ptaseOCRL and CIBN-CAAX were a kind gift from the DeCamilli lab, Yale CT. All experiments were performed at room temperature 24-36 hours post transfection.
Light-activated phosphatase system: The inventors used a light-activated phosphatase system to dephosphorylate PIP2 that is comprised of two fusion proteins: CRY2-5-ptaseOCRL contains the photolyase domain of cryptochrome 2 (CRY2) and the inositol 5-phosphatase domain of the […] oculocerebrorenal syndrome protein (OCRL), while CIBN-CAAX contains the CRY2 binding domain (CIBN) and a C-terminal CAAX box for plasma membrane targeting. When CRY2-5-ptaseOCRL and CIBN-CAAX fusion proteins are co-expressed and exposed to blue light between 458-488 nm, the 5-ptase is localized to the plasma membrane, where it dephosphorylates PIP2. […] The 5-ptaseOCRL system was activated using a 460 nm LED (Luminus) that was focused on the cells through the objective lens of an inverted microscope (Nikon).
Patch-clamp recording: Whole-cell currents were recorded with an Axopatch 200B amplifier (Molecular Devices) controlled via a USB-interface (National Instruments) using WinWCP software (University of Strathclyde). Currents were acquired through a lowpass Bessel filter at 2 kHz and were digitized at 10 kHz. […] Cells for study were selected based on GFP expression using an epifluorescence microscope (Nikon). […] Cells were perfused via a multi-channel gravity-driven perfusion manifold with a physiological buffer comprising: 135 mM NaCl, 5 mM KCl, 1.2 mM MgCl2, 1.5 mM CaCl2, 8 mM Glucose, and 10 mM HEPES; pH 7.4, then quickly transitioning to a high-K^+ buffer comprising 5 mM NaCl, 135 mM KCl, 1.2 mM MgCl2, 1.5 mM CaCl2, 8 mM Glucose, and 10 mM HEPES; pH 7.4. The barium-sensitive component of the current, observed when cells were perfused with the high-K^+ buffer, was analyzed and was determined by perfusing 5 mM BaCl2 in the high-K^+ buffer at the end of each experiment. The 5-ptaseOCRL system was activated using a 460 nm LED (Luminus) that was focused on the cells through the objective lens of an inverted microscope (Nikon). […] ML297, GAT1508 or GAT1521 were maintained as 10 mM stock solutions in DMSO and were diluted to concentrations between 10 μM and 1 nM using the high K^+ buffer for patch-clamp experiments.

For `Cc1cc(NC(=O)Nc2ccc(Br)s2)n(-c2ccccc2)n1` [GAT1508, 1-(5-bromothiophen-2-yl)-3-(3-methyl-1-phenyl-1H-pyrazol-5-yl)urea], the “protection of GIRK1/4 currents from inhibition by the light-activated phosphatase (in words)” value [1] was “not”, the “percentage of GIRK1/2 channel current remaining following activation of 5-ptaseOCRL (in words)” value [2] was “increase” and the “τ of current-inhibition, GIRK1/2 (in words)” value (“τ of current-inhibition” below) [2] was “increase”. The “protection from current inhibition, rank order, GIRK1/2” value (shortened to “protection from current inhibition”) [2] was “GAT1508>GAT1521>ML297>Control”.

In the case of `Cc1cc(NC(=O)Nc2ccc(C)s2)n(-c2ccccc2)n1` [GAT1521, 1-(3-methyl-1-phenyl-1H-pyrazol-5-yl)-3-(5-methylthiophen-2-yl)urea], the “protection of GIRK1/4 currents from inhibition by the light-activated phosphatase (in words)” value [1] is reported as “not”, the “percentage of GIRK1/2 channel current remaining following activation of 5-ptaseOCRL (in words)” value [2] is reported as “increase” and the “τ of current-inhibition” value [2] is reported as “increase”. The “protection from current inhibition” value [2] was “GAT1508>GAT1521>ML297>Control”.

With `Cc1cc(NC(=O)Nc2ccc(F)c(F)c2)n(-c2ccccc2)n1` [ML297, reference compound] the “protection of GIRK1/4 currents from inhibition by the light-activated phosphatase (in words)” value [1] was “some protection”, the “percentage of GIRK1/2 channel current remaining following activation of 5-ptaseOCRL (in words)” value [2] was “increase” and the “τ of current-inhibition” value [2] was “increase”. For the same compound, the “protection from current inhibition” value [2] was “GAT1508>GAT1521>ML297>Control”.
